Laboratory results: patent publication US12521393B2, “Cytotoxicity targeting chimeras for CCR2-expressing cells” (GLAXOSMITHKLINE INTELLECTUAL PROPERTY DEVELOPMENT LIMITED, priority 2021, dated 2026)

Assays:
[1] = biological target: anti-cotinine antibody (SEQ ID NO: 11/12, rabbit variable region with human IgG1 Fc DE mutation); test: SPR binding of anti-cotinine antibody to ARM compounds, Biacore T200, 37° C. (Example 202); details: SPR Biacore T200, 37° C., pH 7.4, antibody SEQ ID NO: 11/12 captured on protein A; Kd in molar
Summary of the method: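 Antibody captured on a protein A chip; ARM compounds injected at 100 μL/min (200 s association, 2000 s dissociation), 3-fold 5-point series from 200 nM, at 37 °C in HEPES pH 7.4 buffer with 0.005% P20 and 1% DMSO. Double-referenced sensorgrams fit 1:1 for kon, koff, Kd (koff/kon), residence time (1/koff); pKd averaged across runs.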

[2] = Blood drug concentration analysis by LC-MS/MS after IV dosing with anti-cotinine antibody (Example 201); type: in vivo; details: C57 background, human CCR2 knock-in, mouse; hCCR2 knock-in mice, IV 0.1 mpk compound + 10 mpk anti-cotinine antibody, whole blood, 48 hours post-dose; read-out: Exposure of Compound of Formula (I) 48 hours post-dose
Method: After bleeding, each mouse was sacrificed by cervical dislocation. […] Flow Cytometry Analysis:
Samples were analyzed on Q-Trap. […] The total run time was 2 minutes.

[3] = biological target: T1, CHOK1 cells engineered to overexpress human CCR2 (Homo sapiens, UniProt P41597); test: Antibody dependent cellular cytotoxicity (ADCC) reporter assay (Example 199); type: cell-based; details: with anti-cotinine antibody (SEQ ID NO: 11/12); Jurkat FcγRIIIa NFAT-luciferase reporter cells; 12-18 hours; EC50 in molar; average or individual runs; read-out: ADCC Reporter Assay pEC50 (converted)
T1 construct: expressed in transfected cells; host or cells: CHOK1
Method: An antibody dependent cellular cytoxocity reporter assay was conducted using the following four assay components: (i) ARM compound of Formula (I) targeting CCR2 (concentrations ranging from […] to 10 μM) (ii) anti-cotinine antibody having a heavy chain sequence of SEQ ID NO: 11 and a light chain sequence of SEQ ID NO: 12 (rabbit variable region with human IgG1 Fc domain containing a DE mutation (S239D/1332E)) (concentrations ranging from 0.01 μg/mL to 200 μg/mL); (iii) target cells: CHOK1 cells engineered to overexpress either human CCR2 (typically 1000-20,000 cells per well) and (iv) reporter cells: Jurkat cells engineered to express FcγRIIIa with the reporter gene luciferase under the control of the NFAT promoter (typically 3000-75,000 cells per well). Reagents were combined in a final volume of 20 μL in a 384-well tissue culture treated plate. All four assay components were incubated together for about 12-18 hours. Thereafter, BioGlo Detection reagent (Promega) was added to the wells to lyse the cells and provide a substrate for the luciferase reporter protein. Luminescence signal was measured on a microplate reader and signal: background was calculated by dividing the signal of a test well by the signal obtained when no heterobivalent compound of Formula (I) was added. EC50 calculations were done using Graphpad Prism Software, specifically a nonlinear regression curve fit (Y=Bottom+(Top−Bottom)/(1+10A((LogEC50−X)*HillSlope))).
ARMs compounds of Formula (I) of the invention were tested for ADCC activity in the above assay in or more experimental runs and the results are shown in Table 3 below. Potency of the compounds of Formula (I) of the invention is reported as a pEC50 value. The pEC50 value is the negative log of the EC50 value, wherein the EC50 value is the half maximal effective concentration measured in molar (M). For compounds tested in more than one experimental run, the pEC50 value is reported as an average.

[4] = biological target: human alpha1 nicotinic acetylcholine (nACh) receptor (Homo sapiens, UniProt P02708); test: Nicotinic acetylcholine receptor antagonism assay, IONFlux automated patch clamp (Example 203); type: cell-based
Summary of the method: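 Cells expressing human α1 nAChR were incubated with a compound dose response (top 10 μM or 100 μM), then stimulated with ACh (10 mM), and peak current was read by automated patch clamp. % inhibition was taken against ACh-alone control, corrected for vehicle and run-down, and fit non-linearly for IC50; runs were averaged.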

human alpha1 nicotinic acetylcholine (nACh) receptor, sequence (P02708 21-457): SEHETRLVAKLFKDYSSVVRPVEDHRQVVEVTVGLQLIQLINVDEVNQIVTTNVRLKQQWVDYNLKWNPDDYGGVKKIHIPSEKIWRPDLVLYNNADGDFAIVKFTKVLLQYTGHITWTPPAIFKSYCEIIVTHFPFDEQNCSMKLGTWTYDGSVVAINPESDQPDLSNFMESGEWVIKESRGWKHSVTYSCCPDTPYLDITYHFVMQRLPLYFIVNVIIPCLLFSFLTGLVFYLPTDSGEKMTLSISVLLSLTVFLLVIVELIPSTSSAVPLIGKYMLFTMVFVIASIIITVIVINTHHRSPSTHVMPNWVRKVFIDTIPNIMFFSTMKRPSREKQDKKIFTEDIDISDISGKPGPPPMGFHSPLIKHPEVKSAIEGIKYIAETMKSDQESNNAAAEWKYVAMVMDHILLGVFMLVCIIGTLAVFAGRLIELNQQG
human alpha1 nicotinic acetylcholine (nACh) receptor, sequence (P11230 24-501 partner): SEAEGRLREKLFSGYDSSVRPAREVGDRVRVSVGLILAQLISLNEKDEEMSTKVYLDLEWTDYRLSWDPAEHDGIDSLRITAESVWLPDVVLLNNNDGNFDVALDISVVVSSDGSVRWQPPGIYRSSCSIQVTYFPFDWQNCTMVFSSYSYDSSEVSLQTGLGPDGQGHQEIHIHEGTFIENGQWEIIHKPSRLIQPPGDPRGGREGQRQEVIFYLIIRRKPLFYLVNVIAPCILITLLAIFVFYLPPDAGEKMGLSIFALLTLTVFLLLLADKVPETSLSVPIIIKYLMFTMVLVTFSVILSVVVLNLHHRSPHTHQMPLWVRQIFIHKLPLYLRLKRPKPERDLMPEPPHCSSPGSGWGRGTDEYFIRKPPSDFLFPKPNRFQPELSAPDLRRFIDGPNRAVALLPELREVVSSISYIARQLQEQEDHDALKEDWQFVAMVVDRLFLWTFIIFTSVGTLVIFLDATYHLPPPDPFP
human alpha1 nicotinic acetylcholine (nACh) receptor, sequence (Q07001 22-517 partner): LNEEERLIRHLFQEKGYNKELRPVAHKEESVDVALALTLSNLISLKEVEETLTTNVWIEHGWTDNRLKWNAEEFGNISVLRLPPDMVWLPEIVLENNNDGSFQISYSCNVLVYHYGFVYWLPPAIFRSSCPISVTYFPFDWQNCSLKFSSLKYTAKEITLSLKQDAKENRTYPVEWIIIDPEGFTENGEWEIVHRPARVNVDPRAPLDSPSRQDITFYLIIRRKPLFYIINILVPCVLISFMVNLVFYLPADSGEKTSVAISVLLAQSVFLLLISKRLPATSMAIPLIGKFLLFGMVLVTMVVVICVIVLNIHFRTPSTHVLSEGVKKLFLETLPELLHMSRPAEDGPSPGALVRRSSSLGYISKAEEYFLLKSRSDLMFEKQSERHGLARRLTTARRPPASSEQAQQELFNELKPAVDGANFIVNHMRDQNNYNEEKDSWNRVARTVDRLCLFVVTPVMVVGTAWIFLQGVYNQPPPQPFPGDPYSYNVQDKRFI

CN1C(=O)C[C@H](C(=O)NCCOCCNC(=O)[C@H]2C[C@H](NC(=O)CCOCCC(=O)N[C@@H]3C[C@H](NC(C)(C)C)CC[C@@H]3N3CC[C@H](Nc4ncnc5ccc(C(F)(F)F)cc45)C3=O)C2)[C@H]1c1cccnc1 [Example 188, (2S,3S)-N-(2-(2-((1R,3S)-3-(3-(3-(((1R,2S,5R)-5-(tert-butylamino)-2-((S)-2-oxo-3-((6-(trifluoromethyl)quinazolin-4-yl)amino)pyrrolidin-1-yl)cyclohexyl)amino)-3-oxopropoxy)propanamido)cyclobutane-1-carboxamido)ethoxy)ethyl)-1-methyl-5-oxo-2-(pyridin-3-yl)pyrrolidine-3-carboxamide]
pKd of Antibody for ARM Compound of Formula (I) [1]: 8.975 | concentration at 48 h [2]: 73 ng/mL | EC50 [3]: 0.000501 µM | IC50 ([4]; antagonism of ACh-stimulated human alpha1 nAChR current, patch clamp): 85.9 µM | Emax at 100 µM ([4]; maximum percentage antagonism at maximum concentration tested 100 μM, read-out: Maximum Response): 53.5%
